Results: ChEMBL document CHEMBL5247647, “Phenothiazine-Based LSD1 Inhibitor Promotes T-Cell Killing Response of Gastric Cancer Cells” (J Med Chem, 2023)

Target: Lysine-specific histone demethylase 1A (Homo sapiens, UniProt O60341)
Assay: Inhibition of recombinant LSD1 (unknown origin) expressed in Escherichia coli BL21 (DE3) using H3K4me2 peptide as substrate incubated for 30 mins by fluorescence based microplate reader assay

Compound: CN(C)CCCN1c2ccccc2Sc2ccccc21 [PROMAZINE]
- IC50: 4.71 µM
